Data set [1] can be described thus: Chemical reductant assay: DTT challenge (cell-free). It is filed as physicochemical. Particulars: aq. TE buffer pH 7.4, 37° C., 6 h. The source says:
(§1) This assay (see FIG. 1) examined the stability of disulfide-based reduction-triggered compounds of the invention when exposed to monothiol reductants, primarily the major physiological cellular monothiol GSH, and dithiol reductants like the disulfide reductant dithiothreitol (DTT), as evaluated in a cell-free assay, to determine whether these compounds can be useful for selective release.
(§2) Assay Conditions: A black 96-well plate with black bottom was charged with solutions of fluorophore-releasing reduction-triggered probes that are compounds of the invention (P1, P2, P3, P4 and P5) or that are not compounds of the invention and reveal the performance of prior art systems (X19) (80 μL; 25 μM in aq. TE buffer (pH 7.4) and 1.25% vol DMSO). Solutions of challenge species chosen from the monothiol glutathione (GSH, 0.1-50 mM) and the dithiol reductant dithiothreitol (DTT, 0.1-50 mM) or phosphine reductant tris-(2-carboxyethyl) phosphine (TCEP); (20 μL; 1 mM in aq. TE buffer (pH 7.4) were added and the reaction mixtures were incubated at 37° C. for 6 h while measuring fluorescence intensity over time [F(t)] using a BMG Labtech FLUOstar Omega platereader (λexc=355 nm, Δem=530 nm for PQ-OH-releasing probes X19, P1 and P2; Δexc=485 nm, Δem=530 nm for MF-OH-releasing probes P3 and P4.
(§3) Data Representation: F^max is the maximum possible fluorescence increase corresponding to complete reduction-triggered cargo release, i.e. the fluorescence intensity increase from time zero to signal plateau under TCEP incubation PQ-OH-releasing probes. F(t)/F^max(t) thus gives the timecourse measurements of fluorescence intensity, as a fraction of the maximum possible fluorescence signal. F^sat is the endpoint fluorescence intensity increase for each condition, ie. F^sat=(F(6 h)). F^sat/F^max thus gives the assay endpoint fluorescence intensity increase, as a fraction of the maximum possible fluorescence signal. In the GSH timecourse measurements shown in FIG. 1, all datasets annotated with concentrations only (0.01-10 mM) refer to GSH challenges, while datasets for TCEP positive control (100 μM) and no-reductant control (blank) are shown for comparison. The dose-response plots show F^sat/F^max for the different ratios between probe and GSH or probe and DTT concentrations, with a logarithmic horizontal scale.

Data set [2] can be described thus: Chemical reductant assay: GSH challenge (cell-free). The format is physicochemical. As to conditions: aq. TE buffer pH 7.4, 37° C., 6 h, GSH 0.01-10 mM.
From the text: as §1, §2, §3

The subject of data set [3] is A549 cells. The data set can be described thus: In vitro cell viability assay P19, P20 (resazurin). It is filed as cell-based, human. Particulars: 48 h. As to the method: (§4) Assay Conditions: Cells (A549 cells for P19 and P20; HeLa cells for P21 and P22) were cultured under standard conditions (Gao, L. et al. Cell Chemical Biology 2021, 28, 1-14. https://doi.org/10.1016/j.chembiol.2020.11.007), left to adhere for 24 h, then P19, P20, P21 or P22 were added from DMSO stock solution and adjusted to 1% vol DMSO. Cells were incubated under standard conditions for 48 h, then 0.20 volume equivalents of a solution of resazurin in PBS (0.15 mg/mL) were added and incubated for 3 hours, then fluorescence (ex 544 nm, em 590 nm) was detected on a fluorescence platereader. Cell viability (%) was calculated relative to a control experiment (no compound) from the fluorescence values.
Background: The colour change of resazurin is a common sign of viable cells or microbes.

In data set [4] the test system is control MEF cells (fl/fl). The data set can be described thus: In vitro TrxR knockout assay: control MEF (fl/fl) viability. It is filed as cell-based. Particulars: Mus musculus, 48 h, resazurin, read-out: IC50 antiproliferation / cell viability. As to the method:
(§5) Assay Conditions: TrxR1 knockout and reference mouse embryonic fibroblasts (MEF) were a gift by Marcus Conrad (LMU Munich) and initially isolated from conditional TrxR1 knockout mouse embryos, were immortalised by lentiviral transduction. In vitro deletion of TrxR1 was achieved by Tat-Cre induced recombination and verified by PCR and Immunoblotting for TrxR1 as described in Conrad et al. Cancer Res. 2010, 70, 22, 9505. MEF knockout (ko) and control (fl/fl) cells were cultured under standard conditions, left to adhere for 24 h, then P17 or P18 were added from DMSO stock solution and adjusted to 1% vol DMSO. Cells were incubated under standard conditions for 48 h, then 0.20 volume equivalents of a solution of resazurin in PBS (0.15 mg/mL) were added and incubated for 3 h, then fluorescence (ex 544 nm, em 590 nm) was detected on a fluorescence platereader. Cell viability (%) is calculated relative to a control experiment with no P17 or P18 added, from the fluorescence values.

For data set [5], the system named is MEF cells with genetic knockout of TrxR (TrxR ko). The data set can be described thus: In vitro TrxR knockout assay: TrxR1 knockout MEF viability. The format is cell-based, mouse. Particulars: MEF TrxR ko versus fl/fl, 48 h, resazurin. How it is done:
as §5

Data set [6] has as its system HeLa, A549 and MEF cells. The data set can be described thus: Cellular reduction assay (FIG. 3). The format is cell-based, human, mouse. As to conditions: 100 μM, 1% vol DMSO, cells under ordinary conditions. As to the method:
Assay Conditions: Cells were cultured under standard conditions (Gao, L. et al. Cell Chemical Biology 2021, 28, 1-14. https://doi.org/10.1016/j.chembiol.2020.11.007), left to adhere for 24 h, then compounds were added to 100 μM with 1% vol DMSO. Fluorescence timecourse measurements were acquired as in the chemoreductant assay, with all conditions in triplicates.
Data Representation: F(t)-F(0) is the fluorescence intensity signal increase as compared to time zero signal (fluorescence intensity immediately following compound addition, before probe activation can occur), in arbitrary units although with the same detection settings for all probes releasing the same cargo. This corresponds to reduction-triggered cargo release. “ctrf” indicates cells not treated with probes, as a negative control.

Data set [7] deals with HeLa cells. The data set can be described thus: In vitro cell viability assay P21, P22 (resazurin). The format is cell-based, human. As to conditions: 48 h. How it is done: as §4

Experimental findings from US20240207414A1, “DISULFIDE-BASED PRODRUG COMPOUND” (Ludwig-Maximilians-Universitat Munchen, priority 2021, published 2024) are described below.

Molecules are shown by their SMILES. pIC50: −log10 of the molar value.

Regarding `COc1ccc2c(c1)Oc1cc(OC(=O)N3CCC[C@@H]4CSSC[C@H]43)ccc1C21OC(=O)c2ccccc21` (mixture of isomers) [Compound P3, 3′-methoxy-3-oxo-3H-spiro[isobenzofuran-1,9′-xanthen]-6′-yl-(trans)-hexahydro-[1,2]dithiino[4,5-b]pyridine-1(2H)-carboxylate], in data set [1], the “activation / cargo release by dithiol reductant DTT” value is on record as “efficiently activated by dithiol-type reductants”. Further, in data set [2], the “cargo release (fluorescence) when challenged with monothiol reductant GSH” value (shortened to “cargo release … with monothiol reductant GSH”) is “do not release cargo”.
Consider `CCc1c2c(nc3ccc(OC(=O)N4CCN(C(=O)CCC(=O)N5CCN(C)CC5)[C@@H]5CSSC[C@@H]54)cc13)-c1cc3c(c(=O)n1C2)COC(=O)[C@]3(O)CC` (racemic) [Compound P20, (R)-4,11-diethyl-4-hydroxy-3,14-dioxo-3,4,12,14-tetrahydro-1H-pyrano[3′,4′:6,7]indolizino[1,2-b]quinolin-9-yl (cis)-4-(4-(4-methylpiperazin-1-yl)-4-oxobutanoyl)hexahydro-[1,2]dithiino[4,5-b]pyrazine-1(2H)-carboxylate], for which, in data set [3], the “tolerability in cells compared with Irinotecan” value is on record as “equally well-tolerated in cells as the approved cancer prodrug Irinotecan” and the “toxicity to cells compared with SN-38” value is “significantly less toxic to cells than the parent compound”.
Consider `COc1cc2cc(C(=O)N3C[C@@H](CCl)c4c3cc(OC(=O)N3CCN(C)[C@@H]5CSSCC53)c3ccccc43)[nH]c2c(OC)c1OC` (mixture of isomers) [Compound P17, (S)-1-(chloromethyl)-3-(5,6,7-trimethoxy-1H-indole-2-carbonyl)-2,3-dihydro-1H-benzo[e]indol-5-yl (cis)-4-methylhexahydro-[1,2]dithiino[4,5-b]pyrazine-1(2H)-carboxylate], for which, in data set [4], the pIC50 is roughly 7.00. In addition, in data set [5], the “activation / cytotoxicity in TrxR ko cells compared to control cells” value was “activated less effectively”.
In the case of `COc1ccc2c(c1)Oc1cc(OC(=O)N3CCC[C@@H]4CSSC[C@@H]43)ccc1C21OC(=O)c2ccccc21` (mixture of isomers) [Compound P4, 3′-methoxy-3-oxo-3H-spiro[isobenzofuran-1,9′-xanthen]-6′-yl-cis-hexahydro-[1,2]dithiino[4,5-b]pyridine-1(2H)-carboxylate], in data set [1], the “activation / cargo release by dithiol reductant DTT” value was “efficiently activated by dithiol-type reductants”. The “cargo release inside cells (fluorescence signal increase over time)” value in data set [6] is “do not release cargo inside cells under ordinary conditions”. In data set [2], the “cargo release … with monothiol reductant GSH” value is “do not release cargo”.
With `CC[C@@]1(O)C(=O)OCc2c1cc1n(c2=O)Cc2cc3c(CN(C)C)c(OC(=O)N4CCCC5CSSC[C@H]54)ccc3nc2-1` (mixture of isomers) [Compound P21, (R)-10-((dimethylamino)methyl)-4-ethyl-4-hydroxy-3,14-dioxo-3,4,12,14-tetrahydro-1H-pyrano[3′,4′:6,7]indolizino[1,2-b]quinolin-9-yl (cis)-hexahydro-[1,2]dithiino[4,5-b]pyridine-1(2H)-carboxylate], in data set [7], the “tolerability in cells compared with Irinotecan” value is on record as “equally well-tolerated in cells as the approved cancer prodrug Irinotecan” and the “toxicity to cells compared with SN-38” value is “significantly less toxic to cells than the parent compound”.
For `O=C(Oc1ccc(Cl)cc1-c1nc2ccc(Cl)cc2c(=O)[nH]1)N1CCN[C@@H]2CSSC[C@H]21` (racemic) [Compound P5, 4-chloro-2-(6-chloro-4-oxo-3,4-dihydroquinazolin-2-yl)phenyl trans-hexahydro-[1,2]dithiino[4,5-b]pyrazine-1(2H)-carboxylate], the “activation / cargo release by dithiol reductant DTT” value in data set [1] was “unusually strong and fast response”. In addition, the “cargo release inside cells (fluorescence signal increase over time)” value in data set [6] is given as “substantially release cargo inside cells cultured under ordinary conditions”. The “cargo release … with monothiol reductant GSH” value in data set [2] is “does release cargo very efficiently”.
As for `CCc1c2c(nc3ccc(OC(=O)N4CCN[C@@H]5CSSC[C@@H]54)cc13)-c1cc3c(c(=O)n1C2)COC(=O)[C@]3(O)CC` (racemic) [Compound P19, (R)-4,11-diethyl-4-hydroxy-3,14-dioxo-3,4,12,14-tetrahydro-1H-pyrano[3′,4′:6,7]indolizino[1,2-b]quinolin-9-yl (cis)-hexahydro-[1,2]dithiino[4,5-b]pyrazine-1(2H)-carboxylate], in data set [3], the “tolerability in cells compared with Irinotecan” value is given as “equally well-tolerated in cells as the approved cancer prodrug Irinotecan” and the “toxicity to cells compared with SN-38” value is recorded as “significantly less toxic to cells than the parent compound”.
For the molecule `CC[C@@]1(O)C(=O)OCc2c1cc1n(c2=O)Cc2cc3c(CN(C)C)c(OC(=O)N4CCCC5CSSC[C@@H]54)ccc3nc2-1` (mixture of isomers) [Compound P22, (R)-10-((dimethylamino)methyl)-4-ethyl-4-hydroxy-3,14-dioxo-3,4,12,14-tetrahydro-1H-pyrano[3′,4′:6,7]indolizino[1,2-b]quinolin-9-yl (trans)-hexahydro-[1,2]dithiino[4,5-b]pyridine-1(2H)-carboxylate], in data set [7], the “tolerability in cells compared with Irinotecan” value was “equally well-tolerated in cells as the approved cancer prodrug Irinotecan” and the “toxicity to cells compared with SN-38” value was “significantly less toxic to cells than the parent compound”.
`COc1cc2cc(C(=O)N3C[C@@H](CCl)c4c3cc(OC(=O)N3CCN(C(=O)CCC(=O)N5CCN(C)CC5)[C@@H]5CSSCC53)c3ccccc43)[nH]c2c(OC)c1OC` (mixture of isomers) [Compound P18, (S)-1-(chloromethyl)-3-(5,6,7-trimethoxy-1H-indole-2-carbonyl)-2,3-dihydro-1H-benzo[e]indol-5-yl (cis)-4-(4-(4-methylpiperazin-1-yl)-4-oxobutanoyl)hexahydro-[1,2]dithiino[4,5-b]pyrazine-1(2H)-carboxylate]: the pIC50 in data set [4] was roughly 7.00. Also, in data set [5], the “activation / cytotoxicity in TrxR ko cells compared to control cells” value was “activated less effectively”.
